Source: PubChem BioAssay AID1259407 (Chemical Carcinogenesis Research Information System (CCRIS), 2018)
Calls of active or inactive are those of the source. The rule behind the calls is not given here.

Test system: CCRIS mutagenicity, Ames/micronucleus/aberration tests
Assay: CCRIS mutagenicity studies
[1] = Test System: AMES SALMONELLA TYPHIMURIUM, Strain/Indicator: TA98, Metabolic Activation: NONE, Method: PREINCUBATION
[2] = Test System: AMES SALMONELLA TYPHIMURIUM, Strain/Indicator: TA98, Metabolic Activation: NONE, Method: STANDARD PLATE
[3] = Test System: AMES SALMONELLA TYPHIMURIUM, Strain/Indicator: TA100, Metabolic Activation: NONE, Method: PREINCUBATION

With `CCN(CC)CCOc1ccc(C(=C(Cl)c2ccccc2)c2ccccc2)cc1` the mutagenic call [1] was “inactive; negative”, the mutagenic call (Test System: AMES SALMONELLA TYPHIMURIUM, Strain/Indicator: TA98, Metabolic Activation: RAT LIVER S-9, 3-METHYLCHOLANTHRENE, Method: PREINCUBATION) was “active; positive” and the mutagenic call (Test System: AMES SALMONELLA TYPHIMURIUM, Strain/Indicator: TA98, Metabolic Activation: RAT LIVER S-9, AROCLOR 1254, Method: PREINCUBATION) was “active; positive”. The mutagenic call (Test System: AMES SALMONELLA TYPHIMURIUM, Strain/Indicator: TA98, Metabolic Activation: RAT LIVER S-9, PHENOBARBITAL, Method: PREINCUBATION) was “active; positive” and the mutagenic call (Test System: AMES SALMONELLA TYPHIMURIUM, Strain/Indicator: TA98, Metabolic Activation: RAT LIVER S-9, STREPTOZOCINE, Method: PREINCUBATION) was “active; positive”.

For `Cc1cccc2c3c(c4cc5ccccc5cc4c12)N3`, the mutagenic call [1] was “active; positive”.

`Cl[Si](Cl)(Cl)Cl` was tested, and the mutagenic call [2] was “inactive; negative”, the mutagenic call (Test System: AMES SALMONELLA TYPHIMURIUM, Strain/Indicator: TA98, Metabolic Activation: RAT LIVER S-9, AROCLOR 1254, Method: STANDARD PLATE) was “inactive; negative” and the mutagenic call (Test System: AMES SALMONELLA TYPHIMURIUM, Strain/Indicator: TA100, Metabolic Activation: NONE, Method: STANDARD PLATE) was “inactive; negative”. The mutagenic call (Test System: AMES SALMONELLA TYPHIMURIUM, Strain/Indicator: TA100, Metabolic Activation: RAT LIVER S-9, AROCLOR 1254, Method: STANDARD PLATE) was “inactive; negative”, the mutagenic call (Test System: AMES SALMONELLA TYPHIMURIUM, Strain/Indicator: TA1535, Metabolic Activation: NONE, Method: STANDARD PLATE) was “inactive; negative” and the mutagenic call (Test System: AMES SALMONELLA TYPHIMURIUM, Strain/Indicator: TA1535, Metabolic Activation: RAT LIVER S-9, AROCLOR 1254, Method: STANDARD PLATE) was “inactive; negative”. For the same compound, the mutagenic call (Test System: AMES SALMONELLA TYPHIMURIUM, Strain/Indicator: TA1537, Metabolic Activation: NONE, Method: STANDARD PLATE) was “inactive; negative”, the mutagenic call (Test System: AMES SALMONELLA TYPHIMURIUM, Strain/Indicator: TA1537, Metabolic Activation: RAT LIVER S-9, AROCLOR 1254, Method: STANDARD PLATE) was “inactive; negative” and the mutagenic call (Test System: AMES SALMONELLA TYPHIMURIUM, Strain/Indicator: TA1538, Metabolic Activation: NONE, Method: STANDARD PLATE) was “inactive; negative”. For the same compound, the mutagenic call (Test System: AMES SALMONELLA TYPHIMURIUM, Strain/Indicator: TA1538, Metabolic Activation: RAT LIVER S-9, AROCLOR 1254, Method: STANDARD PLATE) was “inactive; negative”, the mutagenic call (Test System: E. COLI, Strain/Indicator: P3078 POLA, Metabolic Activation: NONE, Method: SPOT TEST) was “inactive; negative” and the mutagenic call (Test System: E. COLI, Strain/Indicator: P3078 POLA, Metabolic Activation: RAT LIVER S-9, AROCLOR 1254, Method: SPOT TEST) was “inactive; negative”. For the same compound, the mutagenic call (Test System: E. COLI, Strain/Indicator: W3110, Metabolic Activation: NONE, Method: SPOT TEST) was “inactive; negative”, the mutagenic call (Test System: E. COLI, Strain/Indicator: W3110, Metabolic Activation: RAT LIVER S-9, AROCLOR 1254, Method: SPOT TEST) was “inactive; negative” and the mutagenic call (Test System: MOUSE LYMPHOMA, Strain/Indicator: L5178Y (TK+/TK-), Metabolic Activation: NONE, Method: SUSPENSION/PLATE) was “inactive; negative”. For the same compound, the mutagenic call (Test System: MOUSE LYMPHOMA, Strain/Indicator: L5178Y (TK+/TK-), Metabolic Activation: RAT, LIVER, S-9, Method: SUSPENSION/PLATE) was “inactive; negative”.

For `CC(C)(C)NCC(O)COc1ccccc1C1=CCCC1` (stereo not drawn), the mutagenic call [2] was “inactive; negative” and the mutagenic call (Test System: AMES SALMONELLA TYPHIMURIUM, Strain/Indicator: TA98, Metabolic Activation: RAT, LIVER, S-9, AROCLOR 1254, Method: STANDARD PLATE) was “inactive; negative”.

In the case of `CC(C)Sc1cc(Cc2ccc(N)c(SC(C)C)c2)ccc1N`, the mutagenic call [1] is reported as “inactive; negative”, the mutagenic call (Test System: AMES SALMONELLA TYPHIMURIUM, Strain/Indicator: TA98, Metabolic Activation: RAT, LIVER, S-9, PCB, Method: PREINCUBATION) is reported as “active; positive” and the mutagenic call [3] is reported as “inactive; negative”. The mutagenic call (Test System: AMES SALMONELLA TYPHIMURIUM, Strain/Indicator: TA100, Metabolic Activation: RAT, LIVER, S-9, PCB, Method: PREINCUBATION) was “active; positive”.

For `C=C(C)c1ccccc1`, the mutagenic call (End Point: In vitro chromosomal aberrations, Test System: Chinese Hamster ovary (CHO) cells, Metabolic Activation: None) was “inactive; negative”, the mutagenic call (End Point: In vitro chromosomal aberrations, Test System: Chinese Hamster ovary (CHO) cells, Metabolic Activation: Rat, Liver, S-9, Aroclor 1254) was “inactive; negative” and the mutagenic call (End Point: In vivo micronucleus, Test System: Peripheral blood normochromatic erythrocytes, Species: Mouse, Strain/Sex: B6C3F1/ Female, Route: Inhalation) was “active; positive”. The mutagenic call (End Point: In vivo micronucleus, Test System: Peripheral blood normochromatic erythrocytes, Species: Mouse, Strain/Sex: B6C3F1/ Male, Route: Inhalation) was “active; positive”, the mutagenic call (Test System: AMES SALMONELLA TYPHIMURIUM, Strain/Indicator: TA97, Metabolic Activation: HAMSTER, LIVER, S-9, AROCLOR 1254 (10 OR 30%), Method: PREINCUBATION) was “inactive; negative” and the mutagenic call (Test System: AMES SALMONELLA TYPHIMURIUM, Strain/Indicator: TA97, Metabolic Activation: NONE, Method: PREINCUBATION) was “inactive; negative”. The mutagenic call (Test System: AMES SALMONELLA TYPHIMURIUM, Strain/Indicator: TA97, Metabolic Activation: RAT, LIVER, S-9, AROCLOR 1254 (10 OR 30%), Method: PREINCUBATION) was “inactive; negative”, the mutagenic call (Test System: AMES SALMONELLA TYPHIMURIUM, Strain/Indicator: TA98, Metabolic Activation: HAMSTER, LIVER, S-9, AROCLOR 1254 (10%), Method: PREINCUBATION) was “inactive; negative” and the mutagenic call (Test System: AMES SALMONELLA TYPHIMURIUM, Strain/Indicator: TA98, Metabolic Activation: HAMSTER, LIVER, S-9, AROCLOR 1254 (30%), Method: PREINCUBATION) was “inactive; negative”. The mutagenic call [1] was “inactive; negative”, the mutagenic call (Test System: AMES SALMONELLA TYPHIMURIUM, Strain/Indicator: TA98, Metabolic Activation: RAT, LIVER, S-9, AROCLOR 1254 (10%), Method: PREINCUBATION) was “inactive; negative” and the mutagenic call (Test System: AMES SALMONELLA TYPHIMURIUM, Strain/Indicator: TA98, Metabolic Activation: RAT, LIVER, S-9, AROCLOR 1254 (30%), Method: PREINCUBATION) was “inactive; negative”. For the same compound, the mutagenic call (Test System: AMES SALMONELLA TYPHIMURIUM, Strain/Indicator: TA100, Metabolic Activation: HAMSTER, LIVER, S-9, AROCLOR 1254 (10%), Method: PREINCUBATION) was “inactive; negative”, the mutagenic call (Test System: AMES SALMONELLA TYPHIMURIUM, Strain/Indicator: TA100, Metabolic Activation: HAMSTER, LIVER, S-9, AROCLOR 1254 (30%), Method: PREINCUBATION) was “inactive; negative” and the mutagenic call [3] was “inactive; negative”. For the same compound, the mutagenic call (Test System: AMES SALMONELLA TYPHIMURIUM, Strain/Indicator: TA100, Metabolic Activation: RAT, LIVER, S-9, AROCLOR 1254 (10%), Method: PREINCUBATION) was “inactive; negative”, the mutagenic call (Test System: AMES SALMONELLA TYPHIMURIUM, Strain/Indicator: TA100, Metabolic Activation: RAT, LIVER, S-9, AROCLOR 1254 (30%), Method: PREINCUBATION) was “inactive; negative” and the mutagenic call (Test System: AMES SALMONELLA TYPHIMURIUM, Strain/Indicator: TA1535, Metabolic Activation: HAMSTER, LIVER, S-9, AROCLOR 1254 (10 OR 30%), Method: PREINCUBATION) was “inactive; negative”. For the same compound, the mutagenic call (Test System: AMES SALMONELLA TYPHIMURIUM, Strain/Indicator: TA1535, Metabolic Activation: NONE, Method: PREINCUBATION) was “inactive; negative” and the mutagenic call (Test System: AMES SALMONELLA TYPHIMURIUM, Strain/Indicator: TA1535, Metabolic Activation: RAT, LIVER, S-9, AROCLOR 1254 (10 OR 30%), Method: PREINCUBATION) was “inactive; negative”.
